From US7279565B2, “Molecular regulatory circuits to achieve sustained activation of genes of interest by a single stress” (priority 1998, dated 2007) come the findings set out here.

Holding throughout (assay type): cell-based
For assay [1], the target named is T1, transcription factor GLP65 (Homo sapiens, UniProt P06401+Q04206).
T1 construct: expressed in transfected cells
Briefly: Stable HeLa-CAT line with genomic GAL4-fLuc and Hsp70/GAL4-GLP65-RKC transactivator, firefly luciferase assay. Particulars: stable HeLa-CAT clonal line; mifepristone and/or heat treatment at 43° C.; assayed one day later; FIG. 7.
Procedure: HeLa-CAT cells were cotransfected with GAL4-fLuc and Hsp70/GAL4-GLP65-RKC-neo (4:1 molar ratio), and transformants were selected using 400 μg/ml G418. Clonal lines were isolated. […] In the experiment shown in the Figure, parallel cultures of the cell line were either left untreated, or were heat-treated at 43° C. for the times indicated, exposed to mifepristone at the concentrations indicated, or both heat-treated and provided mifepristone. One day later, cells were harvested and assayed for firefly luciferase activity. […] Note that relative firefly luciferase activities are presented as fractions of the highest activity in the experiment.

Assay [2] addresses T2, transcription factor GLP65 (Homo sapiens, UniProt P06401).
T2 construct: expressed in transfected cells; host or cells: human HeLa cells, transient co-transfection
T2 sequence (P06401 679-913 limits assumed): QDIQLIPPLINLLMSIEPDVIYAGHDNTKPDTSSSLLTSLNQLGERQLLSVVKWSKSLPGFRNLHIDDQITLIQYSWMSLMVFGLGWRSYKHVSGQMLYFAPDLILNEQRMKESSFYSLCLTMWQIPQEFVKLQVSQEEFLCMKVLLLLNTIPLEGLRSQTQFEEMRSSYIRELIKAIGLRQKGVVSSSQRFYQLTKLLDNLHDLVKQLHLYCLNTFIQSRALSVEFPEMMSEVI
The experiment in a line: Molecular circuit Hsp70/GAL4-GLP65 + GAL4-fLuc in co-transfected HeLa cells, firefly luciferase assay. Particulars: 10 nM mifepristone with or without heat treatment 43-44° C. for 30-60 min, assayed two or three days later, FIG. 6B.
Procedure: (§1) To test the molecular circuits outlined in FIG. 6A, human HeLa cells were co-transfected with appropriate amounts of Hsp70/GAL4-GLP65 and GAL4-fLuc or GAL4-hGH using Lipofectamine™ reagent (Life Technologies). For correction of differences in transfection efficiency, a small amount of pRL-CMV expressing a Renilla luciferase was also included in transfection mixtures. One day after transfection, cultures were either left untreated, were administered 10 nM mifepristone, were heat-treated (43-44° C. for 30-60 min), or were administered mifepristone and subjected to heat treatment. Two or three days later, cells were harvested and assayed for firefly luciferase activity using the Dual Luciferase Reporter Assay System (Promega Corp.) or for hGH activity using an ELISA kit distributed by Roche, respectively.

In assay [3] the target is T2, transcription factor GLP65. Briefly: Molecular circuit Hsp70/GAL4-GLP65 + GAL4-hGH in co-transfected HeLa cells, hGH ELISA. The conditions noted are these: 10 nM mifepristone with or without heat treatment 43-44° C. for 30-60 min, assayed two or three days later, FIG. 6C.
Procedure: as §1
Assay [4] has as its system EcR/RXR. The experiment in a line: Firefly luciferase reporter assay of the Hsp70/E/GRE combination promoter in transfected EcR-293 cells. The conditions noted are these: EcR-293 cells transfected with Hsp70/E/GRE-fLuc; ponasterone A for 1-2 days. How it is done:
To test the Hsp70/E/GRE combination promoter and compare it with the hsp70B and E/GRE promoters, EcR-293 cells were co-transfected using Lipofectamine™ reagent (Life Technologies) with Hsp70/E/GRE-fLuc, Hsp70-fLuc or E/GRE-fLuc and pRL-CMV containing a constitutively expressed Renilla luciferase gene. One day after transfection, parallel cultures were either left untreated or were subjected to a heat treatment at 43-44° C. for 30 min or to ponasterone A (Invitrogen Corp.) for 1-2 days. Cells were harvested (after ponasterone exposure or 6-7 h after heat treatment), and firefly luciferase activities were determined using the Dual Luciferase Reporter System (Promega Corp.). […] EcR-293 cells expressing activatable EcR/RXR were obtained from Invitrogen Corporation and were cultured according to the manufacturer's instructions.

Molecules are shown by their SMILES.

T1 sequence (P06401+Q04206 fused): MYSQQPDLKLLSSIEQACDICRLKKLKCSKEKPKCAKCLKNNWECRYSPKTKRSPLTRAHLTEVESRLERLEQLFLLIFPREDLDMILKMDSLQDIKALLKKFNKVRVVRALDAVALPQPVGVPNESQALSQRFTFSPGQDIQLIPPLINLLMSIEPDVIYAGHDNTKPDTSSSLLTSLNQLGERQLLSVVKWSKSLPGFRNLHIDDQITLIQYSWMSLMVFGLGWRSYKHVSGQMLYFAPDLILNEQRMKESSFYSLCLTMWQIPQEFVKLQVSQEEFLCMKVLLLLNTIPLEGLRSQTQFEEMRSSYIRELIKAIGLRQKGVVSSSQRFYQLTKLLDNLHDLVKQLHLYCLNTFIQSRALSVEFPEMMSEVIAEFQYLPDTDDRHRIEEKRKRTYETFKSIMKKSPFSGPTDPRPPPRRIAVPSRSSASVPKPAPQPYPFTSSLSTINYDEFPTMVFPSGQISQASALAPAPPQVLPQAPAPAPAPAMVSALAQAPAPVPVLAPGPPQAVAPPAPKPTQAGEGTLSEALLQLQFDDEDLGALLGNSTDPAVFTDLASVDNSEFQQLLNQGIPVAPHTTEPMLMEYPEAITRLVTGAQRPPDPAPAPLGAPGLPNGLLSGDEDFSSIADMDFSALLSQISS

On to `CC#C[C@]1(O)CC[C@H]2[C@@H]3CCC4=CC(=O)CCC4=C3[C@@H](c3ccc(N(C)C)cc3)C[C@@]21C` [mifepristone], for which the “firefly luciferase activity of genomic luciferase gene” value in assay [1] is “Elevated levels of luciferase activity were only measured in cells that were both administered mifepristone and had been subjected to heat treatment”. Moreover, in assay [2], the “expression of fLuc gene (relative firefly luciferase activity)” value was “essentially silent, except when the cells containing the respective gene switches were stressed (heat treatment) as well as were administered mifepristone”. In addition, the “expression of hGH gene (relative hGH activity)” value in assay [3] is “essentially silent, except when the cells containing the respective gene switches were stressed (heat treatment) as well as were administered mifepristone”.
With `CC(C)CC[C@@H](O)[C@](C)(O)[C@H]1CC[C@@]2(O)C3=CC(=O)[C@@H]4C[C@@H](O)[C@@H](O)C[C@]4(C)[C@H]3CC[C@]12C` [ponasterone A], in assay [4], the “firefly luciferase activity (induction of the Hsp70/E/GRE combination promoter)” value was “strongly inducible by heat and ponasterone A”.
